Reference: ChEMBL document CHEMBL4196067, “Indole in the target-based design of anticancer agents: A versatile scaffold with diverse mechanisms” (Eur J Med Chem, 2018)
≈ marks a conversion by molar mass, not a printed value. One block for each molecule: values may come before it.

Legend:
[1] = tested on: Jurkat; experiment: Antiproliferative activity against human Jurkat cells by alamar blue assay; assay type: functional
[2] = tested on: HuT78; experiment: Antiproliferative activity against human HUT78 cells by alamar blue assay; assay type: functional
[3] = tested on: CCRF-HSB-2; experiment: Antiproliferative activity against human HSB2 cells by alamar blue assay; assay type: functional
[4] = tested on: MOLT-4; experiment: Antiproliferative activity against human MOLT4 cells by alamar blue assay; assay type: functional
[5] = target: T1, Sigma intracellular receptor 2 (Rattus norvegicus, UniProt Q5U3Y7); experiment: Displacement of [3H]-di-o-tolylguanidine from sigma-2 receptor in rat liver membranes after 180 mins by scintillation counting method; assay type: cell membranes, Membrane
T1 sequence (Q5U3Y7 whole entry): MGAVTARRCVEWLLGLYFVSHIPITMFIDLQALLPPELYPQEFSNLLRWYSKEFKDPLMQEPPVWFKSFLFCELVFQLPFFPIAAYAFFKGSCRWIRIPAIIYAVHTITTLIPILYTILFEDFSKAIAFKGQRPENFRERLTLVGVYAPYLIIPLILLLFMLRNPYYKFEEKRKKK

[6] = tested on: P388; experiment: Antiproliferative activity against mouse P388 cells; assay type: functional, cell-based
[7] = target: Serine/threonine-protein kinase pim-1 (Homo sapiens, UniProt P11309); experiment: Inhibition of PIM1 (unknown origin)
[8] = target: Histone deacetylase 1 (Homo sapiens, UniProt Q13547); experiment: Inhibition of HDAC1 (unknown origin)
[9] = tested on: HCT-116; experiment: Antiproliferative activity against human HCT116 cells; assay type: functional, cell-based
[10] = tested on: LoVo; experiment: Antiproliferative activity against human LoVo cells; assay type: functional, cell-based
[11] = tested on: K562; experiment: Antiproliferative activity against human K562 cells; assay type: functional, cell-based
[12] = tested on: MCF7; experiment: Antiproliferative activity against human MCF7 cells; assay type: functional, cell-based
[13] = tested on: HepG2; experiment: Antiproliferative activity against human HepG2 cells; assay type: functional, cell-based
[14] = target: Sigma non-opioid intracellular receptor 1 (Cavia porcellus, UniProt Q60492); experiment: Displacement of [3H]-(+)-pentazocine from sigma-1 receptor in guinea pig brain membranes after 180 mins by scintillation counting method; assay type: cell membranes, Membrane
[15] = tested on: MCF7; experiment: Antiproliferative activity against human MCF7 cells after 72 hrs by SRB assay; assay type: functional, cell-based; details: MCF7, 72 h
[16] = tested on: HT-1080; experiment: Antiproliferative activity against human HT1080 cells; assay type: functional, cell-based
[17] = tested on: MDA-MB-435; experiment: Antiproliferative activity against human MDA435 cells; assay type: functional, cell-based

Sequence of Serine/threonine-protein kinase pim-1 (P11309 whole entry): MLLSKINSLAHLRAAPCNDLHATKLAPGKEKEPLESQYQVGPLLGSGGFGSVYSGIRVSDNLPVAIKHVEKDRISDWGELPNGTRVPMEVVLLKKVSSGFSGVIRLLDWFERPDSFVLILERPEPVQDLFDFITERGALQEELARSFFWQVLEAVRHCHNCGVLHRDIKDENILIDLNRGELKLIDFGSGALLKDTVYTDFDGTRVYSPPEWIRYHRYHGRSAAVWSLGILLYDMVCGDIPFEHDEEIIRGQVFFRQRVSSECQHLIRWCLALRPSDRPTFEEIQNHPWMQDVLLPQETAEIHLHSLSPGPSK
Sequence of Histone deacetylase 1 (Q13547 whole entry): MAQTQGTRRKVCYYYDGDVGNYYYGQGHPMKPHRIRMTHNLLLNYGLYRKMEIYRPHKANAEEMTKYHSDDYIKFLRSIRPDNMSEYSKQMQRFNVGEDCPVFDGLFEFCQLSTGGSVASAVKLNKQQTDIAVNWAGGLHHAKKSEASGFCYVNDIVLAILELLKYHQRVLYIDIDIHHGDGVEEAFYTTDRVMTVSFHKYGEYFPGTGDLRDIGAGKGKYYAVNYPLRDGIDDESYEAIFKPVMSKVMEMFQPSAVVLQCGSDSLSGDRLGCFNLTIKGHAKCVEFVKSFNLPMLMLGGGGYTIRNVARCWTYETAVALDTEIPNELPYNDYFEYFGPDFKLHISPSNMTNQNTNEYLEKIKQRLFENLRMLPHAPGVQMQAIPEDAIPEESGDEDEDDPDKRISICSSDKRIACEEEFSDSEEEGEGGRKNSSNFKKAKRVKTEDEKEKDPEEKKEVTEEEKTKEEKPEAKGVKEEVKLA
Sequence of Sigma non-opioid intracellular receptor 1 (Q60492 whole entry): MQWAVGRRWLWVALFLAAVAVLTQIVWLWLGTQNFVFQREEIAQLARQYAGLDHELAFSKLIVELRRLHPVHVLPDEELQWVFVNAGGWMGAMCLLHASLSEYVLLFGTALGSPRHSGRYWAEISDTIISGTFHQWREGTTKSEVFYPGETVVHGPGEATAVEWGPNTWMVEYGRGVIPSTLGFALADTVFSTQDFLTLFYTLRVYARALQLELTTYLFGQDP

SMILES: COc1ccc(Cn2ccc3ccc(C(=O)NO)cc32)cc1
GI50 [1]: 2.4 to 4 µM | GI50 [2]: 2.4 to 4 µM | GI50 [3]: 2.4 to 4 µM | GI50 [4]: 2.4 to 4 µM

SMILES: Fc1ccccc1N1CCN(CCCn2ccc3ccccc32)CC1
Ki [5]: 0.0099 µM

SMILES: CCN(CC)CCCOc1cc(-c2ccc3[nH]cc(-c4ccnc(N)n4)c3c2)nc(N)n1
IC50 [7]: 0.067 µM

SMILES: CN(C)CCCOc1cc(-c2ccc3[nH]cc(-c4ccnc(N)n4)c3c2)nc(N)n1
IC50 [7]: 0.058 µM

SMILES: Cc1cn(CN2CCN(CCc3ccccc3)CC2)c2ccccc12
Ki [5]: 0.0558 µM

SMILES: O=C(CCCCCCNC(=O)c1cc2ccccc2[nH]1)NO
IC50 [16]: 0.14 µM | IC50 [17]: 0.15 µM

Now from value to molecule:

IC50 [6]: 0.01 µg/mL (≈ 0.0282 µM)
SMILES: N[C@@H]1CSCON2CCc3c([nH]c4cc(Br)ccc34)[C@H]12

IC50 [8]: 0.078 µM | IC50 [9]: 3.57 to 6.21 µM | IC50 [10]: 3.57 to 6.21 µM | IC50 [11]: 3.57 to 6.21 µM | IC50 [12]: 3.57 to 6.21 µM | IC50 [13]: 3.57 to 6.21 µM
SMILES: COc1ccc2[nH]cc(Cn3cc(COc4ccc(/C=C/C(=O)NO)cc4OC)nn3)c2c1

Ki [14]: ≤ 0.13 µM | Ki [5]: ≤ 0.13 µM | IC50 [15]: 2.92 µM
SMILES: Clc1ccc(CN2CCN(Cc3c[nH]c4ccccc34)CC2)cc1Cl
